# Values quoted from earlier work, collected in patent US20100249042A1, “COMPOSITIONS AND METHODS FOR TREATMENT OF EYELASHES AND EYEBROWS” (ProCyte Corporation, priority 2009, published 2010).
# How the values were obtained:
# [1] = tested on: Dermal papilla cells (DPCs); conditions: in vitro; Pyo et al. 2007
# human hair follicles = conditions: ex vivo; Pyo et al. 2007
substance,measurement,setting,value
L-alanyl-L-histidyl-L-lysine:copper(II) [AHK-Cu],proliferation of DPCs,[1],stimulated
same,elongation of human hair follicles,human hair follicles,stimulated
